According to the METLIN SMRT retention time set (Domingo-Almenara et al. 2019):

Assay: gradient 5% acetonitrile 3 min, to 50% in 2 min, to 85% in 15 min, held 3 min, 100 µL/min
Details: column: Zorbax Extend-C18 2.1 x 50 mm; eluents: water / acetonitrile, 0.1% formic acid
Outline: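 Over 3 months, pure standards in mixtures of ~100 molecules were run by HPLC coupled to a quadrupole time-of-flight mass spectrometer in positive and negative ionization mode. The column was a Zorbax Extend-C18 (2.1 × 50 mm, 1.8 μm) at 100 μL/min, eluted with water and acetonitrile each holding 0.1% formic acid, with 40 μL dead and 900 μL dwell volumes. Retention time was determined from adduct peaks chosen by software and checked manually.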

SMILES: Cc1cccc(C)c1NC(=O)Cn1nc2c(Oc3cccc(F)c3)nccn2c1=O
- RP-LC retention time: 825 s

SMILES: O=C(c1ccc(=O)n(CCN2CCCC2)c1)N1CCN(c2ccccc2F)CC1
- RP-LC retention time: 619 s

SMILES: Cc1cccc(OCc2nc(-c3ccnc(N4CCCC4)c3)no2)c1
- RP-LC retention time: 725 s

SMILES: Cc1cccc(NC(=O)N2CCC3(CC2)NC(=O)c2ccc(F)cc2N3C)c1
- RP-LC retention time: 723 s

SMILES: COc1cc(NS(=O)(=O)c2ccc3c(c2)-c2oncc2CO3)cc(OC)c1OC
- RP-LC retention time: 805 s

SMILES: Cc1nc(C(=O)Nc2ccccc2)c(C)o1
- RP-LC retention time: 809 s

SMILES: O=C(O)c1ccc(N2CCCC(CN3CCCC3)C2)c(NS(=O)(=O)c2cccc(F)c2)c1 (centres undefined)
- RP-LC retention time: 648 s

SMILES: CN(C)C1CCCN(Cc2c(F)cccc2Cl)C1=O (centres undefined)
- RP-LC retention time: 604 s

SMILES: CCOC(=O)c1csc(NC(=O)CCS(=O)(=O)c2ccc(OC)cc2)n1
- RP-LC retention time: 700 s

SMILES: CC(C)NC(=O)C1CCN(C(=O)c2ncn3c2COC(c2ccc(F)cc2)C3)CC1 (centres undefined)
- RP-LC retention time: 679 s

SMILES: Fc1ccccc1CN1CCc2nc(N3CCN(c4ccccc4F)CC3)ncc2C1
- RP-LC retention time: 771 s

SMILES: CCn1ccc(C(=O)NC2CCN(C3=NS(=O)(=O)C(c4ccc(F)cc4)=C3C)CC2)n1
- RP-LC retention time: 777 s

SMILES: O=C(NCc1ccco1)N(c1ccccc1)c1ccccc1
- RP-LC retention time: 810 s

SMILES: CC(C)c1nncn1C1CCN(S(=O)(=O)c2ccc(C(F)(F)F)cc2)CC1
- RP-LC retention time: 791 s

SMILES: Cc1cccc(-c2nc(Cc3noc(-c4ccncc4)n3)c(C)o2)c1
- RP-LC retention time: 1010 s

SMILES: Cc1ccccc1-c1noc(C2CCCN2C(=O)Nc2cc(F)ccc2F)n1 (centres undefined)
- RP-LC retention time: 1080 s

SMILES: COc1ccc(-c2nnc(-c3cc(S(=O)(=O)N4CCOCC4)ccc3Cl)o2)cc1
- RP-LC retention time: 950 s

SMILES: COc1ccc2c(c1)C1(CCN(C(=O)c3ccccc3F)C1)C(=O)N2 (centres undefined)
- RP-LC retention time: 703 s

SMILES: CCN(CC)C(=O)c1ccc2c(c1)N(CC(=O)N1CCCCC1)C(=O)C1CCCCN21 (centres undefined)
- RP-LC retention time: 795 s

SMILES: CCCN(CCC)S(=O)(=O)c1ccc(Br)c(OC)c1
- RP-LC retention time: 1060 s

SMILES: COc1ccccc1N1CCN(Cc2nc(-c3ccc(N4CCOCC4)nc3)no2)CC1
- RP-LC retention time: 694 s

SMILES: O=C(Nc1cccc(F)c1)C(=O)c1ccc[nH]1
- RP-LC retention time: 846 s

SMILES: COc1ccc(/C=C/C(=O)c2c(OC)cc(O)cc2OC)cc1
- RP-LC retention time: 1160 s

SMILES: COc1cc(NC(=O)c2cnn(-c3ccc(Br)cc3)c2)cc(OC)c1OC
- RP-LC retention time: 931 s

SMILES: Cc1ccc(NS(=O)(=O)c2cc(-c3[nH]ncc3C(=O)N3CCOCC3)oc2C)cc1F
- RP-LC retention time: 695 s

SMILES: Cc1cccc2nnc(N3CCC(C(=O)NCc4ccccc4)CC3)n12
- RP-LC retention time: 660 s

SMILES: COc1ccc2[nH]cc(CCN3CC(C(=O)Nc4cc(C)cc(C)c4)CC3=O)c2c1 (centres undefined)
- RP-LC retention time: 846 s

SMILES: CC(C)Cn1c(=O)c2cc(C(=O)NCc3cc(F)ccc3F)nn2c2ccccc21
- RP-LC retention time: 1030 s

SMILES: COc1ccc(NS(=O)(=O)c2cc(-c3cc(C(F)(F)F)on3)sc2C)cc1
- RP-LC retention time: 1120 s

SMILES: O=C(NCCc1c[nH]c2ccc(Cl)cc12)c1ccccc1Cl
- RP-LC retention time: 873 s

SMILES: Cc1nc(C2CN(S(=O)(=O)c3cccc(C(F)(F)F)c3)CC23CCOCC3)no1 (centres undefined)
- RP-LC retention time: 856 s

SMILES: Cc1ccc(-c2cn3c(CC(=O)NC4CCCCCC4)csc3n2)cc1C
- RP-LC retention time: 894 s

SMILES: CCC(=O)Nc1ccc(SCc2nnc(-c3ccccc3)o2)cc1
- RP-LC retention time: 811 s

SMILES: COc1ccc(S(=O)(=O)N2C[C@@H]3C[C@H](NC(=O)c4ccccc4)[C@H]2C3)cc1Cl
- RP-LC retention time: 907 s

SMILES: CCOC(=O)c1c(C)[nH]c(CCC(=O)NC(C)CC)c1C (centres undefined)
- RP-LC retention time: 762 s

SMILES: CCCN1CCCCc2cc(C(=O)NC(C)(C)C)sc21
- RP-LC retention time: 1200 s

SMILES: CCCn1ccc2sc(C)c(C(=O)NC3CCCCC3)c2c1=O
- RP-LC retention time: 884 s

SMILES: CC(CCc1ccccc1)NC(=O)Cc1nnc(-c2ccncc2)o1 (centres undefined)
- RP-LC retention time: 744 s

SMILES: Cc1ccc(N2CCN(Cc3nc(-c4ccc(N5CCCCC5)nc4)no3)CC2)cc1
- RP-LC retention time: 901 s

SMILES: Cc1nc(OCC(=O)Nc2ccc(F)c(Cl)c2)c2ccccc2n1
- RP-LC retention time: 782 s

SMILES: COc1ccc(-c2cn3c(CC(=O)Nc4ccc(Cl)cn4)csc3n2)cc1OC
- RP-LC retention time: 715 s

SMILES: Cc1ccc(CNC(=O)C2(C)CN(S(C)(=O)=O)CC(=O)N2Cc2ccc(Cl)cc2)cc1 (centres undefined)
- RP-LC retention time: 906 s

SMILES: CCS(=O)(=O)N1CC(F)(F)C[C@H]1c1nc(-c2cccnc2)no1
- RP-LC retention time: 743 s

SMILES: CCOc1ccc(NC(=O)Cn2nc(N3CCSCC3)c3ccccc3c2=O)cc1
- RP-LC retention time: 929 s

SMILES: CCC(C)(C)C(=O)N1CCCC(c2nc(CCNC(=O)C(C)C)cs2)C1 (centres undefined)
- RP-LC retention time: 783 s

SMILES: Cc1cc(N2CCCCCC2)n2nc(CN3CCCCC3C)nc2n1 (centres undefined)
- RP-LC retention time: 609 s

SMILES: O=C(Cc1cccc(F)c1)N1CCC(Nc2ncnc3c2CCC3)C1 (centres undefined)
- RP-LC retention time: 617 s

SMILES: COc1ccc(C(=O)N2CCN(C(=O)c3ccco3)CC2)nn1
- RP-LC retention time: 576 s

SMILES: Cc1cc(C)cc(C(=O)N2c3ccccc3CC2c2nc(C3CC3)no2)c1 (centres undefined)
- RP-LC retention time: 1130 s

SMILES: Cc1ccc(NC(=O)c2cc(C)n3nc(C)cc3n2)c(C)c1
- RP-LC retention time: 1140 s

SMILES: Cc1csc(NC(=O)c2ccc(N3CCCC3)nn2)n1
- RP-LC retention time: 626 s

SMILES: Cc1nc(-c2csc(S(=O)(=O)N3CCC(C(=O)NCCc4ccc(Cl)cc4)CC3)c2)no1
- RP-LC retention time: 938 s

SMILES: O=C(NCc1ccccc1)N1CCN(Cc2nc3cc(Cl)ccc3o2)CC1
- RP-LC retention time: 717 s

SMILES: O=C(NCC1CCCCC1)C1CCN(C(=O)c2ncn3c2COC(c2ccc(F)cc2)C3)CC1 (centres undefined)
- RP-LC retention time: 846 s

SMILES: Cc1cc(S(=O)(=O)N2C[C@@H](F)C[C@H]2C(=O)N2CCCCC2)ccc1F
- RP-LC retention time: 786 s

SMILES: CC(=O)c1ccc(NC(=O)c2cnc(-c3ccccc3)nc2-c2ccncc2)cc1
- RP-LC retention time: 795 s

SMILES: CN(Cc1nc2ccccc2n1Cc1ccc(F)cc1)C(=O)c1ccco1
- RP-LC retention time: 714 s

SMILES: Cc1ccccc1NC(=O)Cn1nc2cc(-c3ccccn3)nc(C)n2c1=O
- RP-LC retention time: 746 s

SMILES: CCCc1noc(-c2cccn3c(CC(=O)N4CCOCC4)nnc23)n1
- RP-LC retention time: 626 s

SMILES: COc1ccc(OC)c(NC2=NS(=O)(=O)C(c3ccc(F)cc3)=C2C)c1
- RP-LC retention time: 880 s

SMILES: C=C1C(=O)O[C@@H]2[C@H]3O[C@]3(C)CC/C=C(\C)CC[C@@H]12
- RP-LC retention time: 898 s

SMILES: CCNc1nc(N(CC)CC)nc(-n2cnc(SC)n2)n1
- RP-LC retention time: 964 s

SMILES: Cc1cccc2c1NC(=O)C2(O)CC(=O)c1ccccc1Cl (centres undefined)
- RP-LC retention time: 729 s

SMILES: O=S(=O)(c1ccccc1F)N1CCc2nc(-c3ccc(Cl)cc3)ncc2C1
- RP-LC retention time: 1190 s

SMILES: COc1ccc(C2(C(=O)N3CCC(c4noc(-c5cccc(OC)c5)n4)CC3)CC2)cc1
- RP-LC retention time: 1040 s

SMILES: CC(=O)N1CCC(c2nc(C)c(C(=O)O)s2)CC1
- RP-LC retention time: 588 s

SMILES: O=c1c2cc3c(cc2nc(SCc2nc(-c4ccc(F)cc4)no2)n1CC1CCCO1)OCO3 (centres undefined)
- RP-LC retention time: 1130 s

SMILES: CCOC(=O)c1sc(NC(=O)Cn2c(=O)oc3ccccc32)nc1C
- RP-LC retention time: 778 s

SMILES: CCn1cc(C(=O)Nc2cccc(Br)c2)c2nn(-c3ccccc3)c(=O)c-2c1
- RP-LC retention time: 1090 s

SMILES: O=C(C1CC(=O)N(c2n[nH]c3cccc(F)c23)C1)N1CCN(c2ccccc2)CC1 (centres undefined)
- RP-LC retention time: 718 s

SMILES: COc1cc(NC(=O)CCc2c(-c3ccccc3)nc3ccccn23)cc(OC)c1
- RP-LC retention time: 671 s

SMILES: O=C(Nc1ccccc1)C1CCCN(S(=O)(=O)c2c[nH]c(C(=O)N3CCCC3)c2)C1 (centres undefined)
- RP-LC retention time: 769 s

SMILES: N#CC1(c2ccc(NC(=O)c3cccnc3NCc3ccncc3)cc2)CCCC1
- RP-LC retention time: 734 s

SMILES: Cn1cc(-c2cc3n(n2)CCC(=O)N3CCCC(=O)NCc2ccc3c(c2)OCO3)c2ccccc21
- RP-LC retention time: 795 s

SMILES: CN(C)C(=O)OC1=C(c2ccccc2)Sc2ccccc2-n2cccc21
- RP-LC retention time: 1250 s

SMILES: O=C(NCCCn1c(-c2ccncc2)nc2cccnc21)Nc1ccc(F)cc1F
- RP-LC retention time: 652 s

SMILES: Cc1cccc(NC(=O)CC(=O)Nc2ccc3nc4n(c(=O)c3c2)CCCCC4)n1
- RP-LC retention time: 624 s

SMILES: CCn1cnc(S(=O)(=O)N2CCC(C(=O)NCc3ccc(N(C)C)cc3)CC2)c1
- RP-LC retention time: 567 s

SMILES: C[C@H]1CN(C(=O)Nc2ccc3c(c2)CCC3)C[C@@H]1c1nc(-c2ccncc2)no1
- RP-LC retention time: 888 s

SMILES: O=S(=O)(NCc1cccnc1-c1ccc(F)cc1)c1ccc(Cl)cc1
- RP-LC retention time: 799 s

SMILES: Cc1ccc(NS(=O)(=O)c2cc(-c3[nH]ncc3C(=O)N(C)C)oc2C)cc1F
- RP-LC retention time: 713 s

SMILES: Cc1cc(N2CCC(NC(=O)Nc3ccccc3)C2=O)ccc1F (centres undefined)
- RP-LC retention time: 824 s

SMILES: COc1ccc(CC(=O)N2CCC3(CC2)NC(=O)c2ccccc2N3C)cc1OC
- RP-LC retention time: 711 s

SMILES: CCC(=O)N(C1CCOCC1)C1CCN(Cc2cc(F)c(F)cc2F)CC1
- RP-LC retention time: 608 s

SMILES: CCOCCCNC(=O)c1c(N)n(-c2ccc(C(C)=O)cc2)c2nc3ccccc3nc12
- RP-LC retention time: 876 s

SMILES: CN(C)S(=O)(=O)c1ccc2c(c1)N(CC(=O)Nc1cccc(F)c1)C(=O)C1CCCCN21 (centres undefined)
- RP-LC retention time: 928 s

SMILES: Cn1cc(CN2CCC(C(=O)NCCCN3CCOCC3)CC2)c2cc(Cl)ccc21
- RP-LC retention time: 580 s

SMILES: CCCCN(C)C(=O)c1sc(-c2cn(C(C)C)c3ncccc23)nc1C
- RP-LC retention time: 1010 s

SMILES: COc1ccc(N2CC(c3noc(-c4ccc(C)c(C)c4)n3)CC2=O)cc1 (centres undefined)
- RP-LC retention time: 1030 s
